Experimental data: the NIST ThermoML archive (doi:10.1016/j.tca.2016.01.003)
± gives the expanded uncertainty stated by the source.

Tests used:
[1] = Molar enthalpy of transition or fusion; settings: Crystal; DSC
[2] = Crystal; DTA

CN1C(=O)N[C@H]2NC(=O)N(C)[C@H]21
Molar enthalpy of transition or fusion [1]: 10.3 ± 0.239 kcal/mol
Normal melting temperature [2]: 303 ± 0.6 °C
